According to PubChem BioAssay AID330 (DTP/NCI, 2004):
Where “and” joins values, the source holds several entries; their conditions need not be identical. Equal entries are not always repeated. Inconclusive results and toxic doses are left out.

System: P388 leukemia ip, CD2F1 mice, survival T/C
Assay: NCI In Vivo Anticancer Drug Screen. Data for tumor model P388 Leukemia (intraperitoneal) in CD2F1 (CDF1) mice
Conditions: endpoint: median survival time, higher = longer survival
How it was run: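 Mice carrying the transplanted tumor received test compound or vehicle. Survival was recorded in each group, and the value is the treated-group measurement divided by that of the vehicle-treated control group.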

[1] = dose: 50.0 mg/kg/injection, schedule: Q04DX003 (ip), vehicle: saline
[2] = dose: 50.0 mg/kg/injection, schedule: Q01DX009 (ip), vehicle: saline with Tween-80
[3] = dose: 100.0 mg/kg/injection, schedule: Q01DX009 (ip), vehicle: saline with Tween-80
[4] = dose: 100.0 mg/kg/injection, schedule: Q04DX003 (ip), vehicle: saline with Tween-80
[5] = dose: 200.0 mg/kg/injection, schedule: Q01DX009 (ip), vehicle: saline with Tween-80
[6] = dose: 200.0 mg/kg/injection, schedule: Q04DX003 (ip), vehicle: saline with Tween-80
[7] = dose: 60.0 mg/kg/injection, schedule: Q01DX005 (ip), vehicle: Klucel (hydroxypropylcellulose) (HPC)
[8] = dose: 120.0 mg/kg/injection, schedule: Q01DX005 (ip), vehicle: Klucel (hydroxypropylcellulose) (HPC)
[9] = dose: 240.0 mg/kg/injection, schedule: Q01DX005 (ip), vehicle: Klucel (hydroxypropylcellulose) (HPC)
[10] = dose: 60.0 mg/kg/injection, schedule: Q01DX005 (ip), vehicle: saline
[11] = dose: 240.0 mg/kg/injection, schedule: Q01DX005 (ip), vehicle: saline

C/C=C/CC(C)C(O)C1C(=O)NC(CC)C(=O)N(C)CC(=O)N(C)C(CC(C)C)C(=O)NC(C(C)C)C(=O)N(C)C(CC(C)C)C(=O)NC(C)C(=O)NC(C)C(=O)N(C)C(CC(C)C)C(=O)N(C)C(CC(C)C)C(=O)N(C)C(C(C)C)C(=O)N1C (centres undefined)
T/C (dose: 15.0 mg/kg/injection, schedule: Q01DX009 (ip), vehicle: Klucel (hydroxypropylcellulose) (HPC)): 106 % of control
T/C (dose: 30.0 mg/kg/injection, schedule: Q01DX009 (ip), vehicle: Klucel (hydroxypropylcellulose) (HPC)): 109 % of control
T/C (dose: 60.0 mg/kg/injection, schedule: Q01DX009 (ip), vehicle: Klucel (hydroxypropylcellulose) (HPC)): 116 % of control
T/C (dose: 120.0 mg/kg/injection, schedule: Q01DX009 (ip), vehicle: Klucel (hydroxypropylcellulose) (HPC)): 109 % of control

Cc1cc(NCCCNCCCNc2cc(C)nc3cc(N)ccc23)c2ccc(N)cc2n1
T/C (dose: 12.5 mg/kg/injection, schedule: Q01DX009 (ip), vehicle: other): 160 % of control

Cc1c2oc3c(C)c([N+](=O)[O-])cc(C(=O)NC4C(=O)NC(C(C)C)C(=O)N5CCCC5C(=O)N(C)CC(=O)N(C)C(C(C)C)C(=O)OC4C)c3nc-2c(C(=O)NC2C(=O)NC(C(C)C)C(=O)N3CCCC3C(=O)N(C)CC(=O)N(C)C(C(C)C)C(=O)OC2C)c(N)c1=O (centres undefined)
T/C (dose: 0.01 mg/kg/injection, schedule: Q01DX009 (ip), vehicle: Klucel (hydroxypropylcellulose) (HPC)): 90 % of control
T/C (dose: 0.02 mg/kg/injection, schedule: Q01DX009 (ip), vehicle: Klucel (hydroxypropylcellulose) (HPC)): 106 % of control
T/C (dose: 0.04 mg/kg/injection, schedule: Q01DX009 (ip), vehicle: Klucel (hydroxypropylcellulose) (HPC)): 108 % of control
T/C (dose: 0.08 mg/kg/injection, schedule: Q01DX009 (ip), vehicle: Klucel (hydroxypropylcellulose) (HPC)): 120 % of control and 217 % of control
T/C (dose: 0.3 mg/kg/injection, schedule: Q01DX009 (ip), vehicle: Klucel (hydroxypropylcellulose) (HPC)): 218 % of control

O=c1c([N+](=O)[O-])c[nH]c2ccccc12
T/C (dose: 25.0 mg/kg/injection, schedule: Q01DX009 (ip), vehicle: distilled water + Tween-80): 92 % of control
T/C (dose: 50.0 mg/kg/injection, schedule: Q01DX009 (ip), vehicle: distilled water + Tween-80): 87 % of control
T/C (dose: 100.0 mg/kg/injection, schedule: Q01DX009 (ip), vehicle: distilled water + Tween-80): 108 % of control
T/C (dose: 200.0 mg/kg/injection, schedule: Q01DX009 (ip), vehicle: distilled water + Tween-80): 93 % of control

Cc1ccc(S(=O)(=O)N=S(=O)(CCCl)CCCl)cc1
T/C (dose: 12.5 mg/kg/injection, schedule: Q04DX003 (ip), vehicle: saline): 98 % of control
T/C (dose: 25.0 mg/kg/injection, schedule: Q04DX003 (ip), vehicle: saline): 98 % of control
T/C [1]: 96 % of control

Nc1ncc(C2CO2)c(-c2ccccc2)n1 (centres undefined)
T/C (dose: 25.0 mg/kg/injection, schedule: Q01DX009 (ip), vehicle: Klucel (hydroxypropylcellulose) (HPC)): 94 % of control
T/C (dose: 50.0 mg/kg/injection, schedule: Q01DX009 (ip), vehicle: Klucel (hydroxypropylcellulose) (HPC)): 103 % of control
T/C (dose: 100.0 mg/kg/injection, schedule: Q01DX009 (ip), vehicle: Klucel (hydroxypropylcellulose) (HPC)): 108 % of control

CC(=O)OCCOCn1cc(C)[n+]([O-])nc1=O
T/C (dose: 60.0 mg/kg/injection, schedule: Q01DX005 (ip), vehicle: saline with Tween-80): 100 % of control
T/C (dose: 120.0 mg/kg/injection, schedule: Q01DX005 (ip), vehicle: saline with Tween-80): 94 % of control
T/C (dose: 240.0 mg/kg/injection, schedule: Q01DX005 (ip), vehicle: saline with Tween-80): 95 % of control

Cc1cc(Br)ccc1N=Nc1c(C)noc1C
T/C (dose: 100.0 mg/kg/injection, schedule: Q04DX002 (ip), vehicle: saline): 104 % of control
T/C (dose: 200.0 mg/kg/injection, schedule: Q04DX002 (ip), vehicle: saline): 104 % of control
T/C (dose: 400.0 mg/kg/injection, schedule: Q04DX002 (ip), vehicle: saline): 101 % of control

CCCCC(CC)CO.[Ti] (centres undefined)
T/C [2]: 90 % of control
T/C (dose: 50.0 mg/kg/injection, schedule: Q04DX003 (ip), vehicle: saline with Tween-80): 100 % of control
T/C [3]: 109 % of control
T/C [4]: 100 % of control
T/C [5]: 100 % of control
T/C [6]: 100 % of control

CCCCCCCCCCCCCCCCCCOCC(CO)OC (centres undefined)
T/C (dose: 50.0 mg/kg/injection, schedule: Q01DX005 (ip), vehicle: saline with Tween-80): 101 % of control and 115 % of control
T/C (dose: 100.0 mg/kg/injection, schedule: Q01DX005 (ip), vehicle: saline with Tween-80): 115 % of control and 123 % of control
T/C (dose: 200.0 mg/kg/injection, schedule: Q01DX005 (ip), vehicle: saline with Tween-80): 123 % of control
T/C (dose: 400.0 mg/kg/injection, schedule: Q01DX005 (ip), vehicle: saline with Tween-80): 97 % of control

COc1ccc2c(c1)CCc1c-2n[nH]c1-c1[nH]nc2c1CCc1cc(OC)ccc1-2
T/C [7]: 93 % of control
T/C [8]: 93 % of control
T/C [9]: 94 % of control

Cc1cccc(NC(=O)N(C(C)C)C(C)C)c1
T/C (dose: 60.0 mg/kg/injection, schedule: Q01DX005 (ip), vehicle: Klucel + Tween-80): 100 % of control
T/C (dose: 120.0 mg/kg/injection, schedule: Q01DX005 (ip), vehicle: Klucel + Tween-80): 97 % of control
T/C (dose: 240.0 mg/kg/injection, schedule: Q01DX005 (ip), vehicle: Klucel + Tween-80): 89 % of control

Cc1c2ccncc2c(O)c2c3ccccc3n(C)c12
T/C (dose: 12.5 mg/kg/injection, schedule: Q01DX005 (ip), vehicle: Klucel (hydroxypropylcellulose) (HPC)): 108 % of control
T/C (dose: 25.0 mg/kg/injection, schedule: Q01DX005 (ip), vehicle: Klucel (hydroxypropylcellulose) (HPC)): 110 % of control
T/C (dose: 50.0 mg/kg/injection, schedule: Q01DX005 (ip), vehicle: Klucel (hydroxypropylcellulose) (HPC)): 108 % of control

CCCN1C(=O)C2C3CCC(O3)C2C1=O (centres undefined)
T/C [10]: 100 % of control
T/C (dose: 120.0 mg/kg/injection, schedule: Q01DX005 (ip), vehicle: saline): 109 % of control
T/C [11]: 98 % of control

c1ccc2c(c1)CCc1c-2n[nH]c1-c1[nH]nc2c1CCc1ccccc1-2
T/C [7]: 99 % of control
T/C [8]: 89 % of control
T/C [9]: 88 % of control

CCSC(=O)N1c2ccc(OC)cc2C=CC1C#N (centres undefined)
T/C (dose: 44.0 mg/kg/injection, schedule: Q01DX009 (ip), vehicle: saline with Tween-80): 119 % of control
T/C [2]: 105 % of control
T/C (dose: 66.0 mg/kg/injection, schedule: Q01DX009 (ip), vehicle: saline with Tween-80): 119 % of control
T/C [4]: 109 % of control
T/C (dose: 150.0 mg/kg/injection, schedule: Q01DX009 (ip), vehicle: saline with Tween-80): 160 % of control
T/C [5]: 108 % of control
T/C [6]: 118 % of control
T/C (dose: 266.0 mg/kg/injection, schedule: Q04DX003 (ip), vehicle: saline with Tween-80): 124 % of control
T/C (dose: 400.0 mg/kg/injection, schedule: Q01DX009 (ip), vehicle: saline with Tween-80): 118 % of control
T/C (dose: 800.0 mg/kg/injection, schedule: Q01DX009 (ip), vehicle: saline with Tween-80): 96 % of control

ClCCCCOCBr
T/C [10]: 93 % of control
T/C [11]: 87 % of control

O=C1/C(=C/c2cccnc2)SC(=S)N1Cc1ccco1
T/C [2]: 97 % of control
T/C [3]: 94 % of control
T/C [5]: 90 % of control

CCOC(=O)C12C3CC4C1C1(Cl)C(Cl)(Cl)C2(Cl)C2(Cl)C3C4C12Cl (centres undefined)
T/C (dose: 100.0 mg/kg/injection, schedule: Q04DX002 (ip), vehicle: saline with Tween-80): 94 % of control
T/C (dose: 200.0 mg/kg/injection, schedule: Q04DX002 (ip), vehicle: saline with Tween-80): 93 % of control
T/C (dose: 400.0 mg/kg/injection, schedule: Q04DX002 (ip), vehicle: saline with Tween-80): 109 % of control

CC1CN1P(=O)(N1CC=CCC1)N1CC1C (centres undefined)
T/C (dose: 22.0 mg/kg/injection, schedule: Q04DX003 (ip), vehicle: saline): 100 % of control
T/C (dose: 33.0 mg/kg/injection, schedule: Q01DX009 (ip), vehicle: saline): 150 % of control
T/C (dose: 33.0 mg/kg/injection, schedule: Q04DX003 (ip), vehicle: saline): 113 % of control
T/C [1]: 122 % of control
T/C (dose: 75.0 mg/kg/injection, schedule: Q04DX003 (ip), vehicle: saline): 150 % of control
